{
  "source": "patent US5177075A",
  "about": "“Substituted dihydroisoquinolinones and related compounds as potentiators of the lethal effects of radiation and certain chemotherapeutic agents; selected compounds, analogs and process” (priority 1991, dated 1993)",
  "key": {"V79 cells": {"test_system": "V79 cells", "test": "In vitro radiosensitizing activity at 37°: shoulder modifying effects (reduction in Dq)", "format": "cell-based", "procedure": "The shoulder region represents the inherent repair capabilities of a given cell line. […] To determine the hypoxic x-ray dose response, cells are rendered hypoxic four hours prior to the addition of the test compound by placing them in a 37° C. incubator within an anaerobic glove chamber (Forma). […] Drug is added (0.1 ml into 2 ml media in petri dish) within the anaerobic chamber and drug treatment is at the highest nontoxic dose for one hour at 37°. The oxic x-ray dose response is determined in a similar manner except that all manipulations are carried out in air. […] Cytotoxicity controls (drug only, no irradiation) are included as well as oxic and hypoxic untreated controls (irradiation only, no drug). Immediately following irradiation, cells are rinsed twice with 2 ml fresh media prior to the addition of 5 ml of fresh media. The cells are then incubated at 37° C. After six days, dishes are stained with crystal violet and colonies of 50 or more cells are counted to determine percent surviving cells versus x-ray dose. […] This is expressed by percent reduction in Dq where Dq is defined as the dose at the intersection of the regression line for the logarithmic portion of the survival curve with the 100% survival level. This is taken to represent the width of the shoulder region of the survival curve."}, "[1]": {"biological_target": "T1, Poly(ADP-ribose) synthetase (Bos taurus, UniProt P18493)", "T1 construct": "Poly (ADP-ribose) synthetase from calf thymus; from tissue; host or cells: calf thymus", "T1 sequence (P18493 whole entry)": "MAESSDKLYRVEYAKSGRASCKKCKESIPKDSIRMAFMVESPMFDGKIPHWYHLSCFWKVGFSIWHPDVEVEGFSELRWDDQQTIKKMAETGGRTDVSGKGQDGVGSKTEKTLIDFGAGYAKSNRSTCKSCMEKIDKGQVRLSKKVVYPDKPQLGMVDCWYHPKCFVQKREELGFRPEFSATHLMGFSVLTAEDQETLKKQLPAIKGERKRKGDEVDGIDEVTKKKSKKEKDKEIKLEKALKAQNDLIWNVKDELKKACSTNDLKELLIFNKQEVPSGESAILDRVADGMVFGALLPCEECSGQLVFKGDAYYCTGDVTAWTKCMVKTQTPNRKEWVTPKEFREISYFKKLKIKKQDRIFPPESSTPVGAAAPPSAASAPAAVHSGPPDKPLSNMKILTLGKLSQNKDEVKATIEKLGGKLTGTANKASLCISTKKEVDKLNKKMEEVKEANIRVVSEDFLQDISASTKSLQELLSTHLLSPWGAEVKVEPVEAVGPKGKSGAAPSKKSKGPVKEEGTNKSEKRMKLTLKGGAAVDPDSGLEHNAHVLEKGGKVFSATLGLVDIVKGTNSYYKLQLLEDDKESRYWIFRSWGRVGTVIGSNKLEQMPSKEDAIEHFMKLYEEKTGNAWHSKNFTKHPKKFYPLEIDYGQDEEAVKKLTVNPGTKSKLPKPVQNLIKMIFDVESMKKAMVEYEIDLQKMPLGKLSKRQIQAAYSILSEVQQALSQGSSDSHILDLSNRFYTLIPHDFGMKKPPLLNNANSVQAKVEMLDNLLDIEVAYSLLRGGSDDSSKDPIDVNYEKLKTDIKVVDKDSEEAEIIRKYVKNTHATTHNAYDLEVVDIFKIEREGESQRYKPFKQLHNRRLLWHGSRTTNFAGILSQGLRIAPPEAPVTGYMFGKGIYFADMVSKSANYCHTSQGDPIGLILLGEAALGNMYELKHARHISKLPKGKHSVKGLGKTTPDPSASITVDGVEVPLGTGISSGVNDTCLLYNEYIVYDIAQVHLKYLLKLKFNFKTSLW", "settings": "cited from earlier work"}, "[2]": {"test_system": "cells exposed to radiation", "settings": "cited from earlier work"}, "L1210 cells": {"test_system": "L1210 cells", "test": "Inhibition of the repair of radiation-induced DNA damage as assessed by alkaline elution", "format": "cell-based", "procedure": "Inhibition of the Repair of Radiation-Induced DNA Damage as Assessed by Alkaline Elution The basic alkaline elution assay is carried out according to the procedure of K. W. Kohn, […]. Erickson, and L. A. Zwelling in DNA Repair: A Laboratory Manual of Research Procedures (eds. E. C. Freidburg and […]) with slight modifications. Briefly, suspension cultures of exponentially growing L1210 cells (total of 4×10^6 cells) are labeled with 0.02 μCi/ml of [^14 C] thymidine plus 1 nmol/ml of unlabeled thymidine for 24 hours prior to use. L1210 cells used as an internal standard are grown in media supplemented with 0.1 μCi/ml of [^3 H]thymidine and 1 nmol/ml unlabeled thymidine. For the elution protocol cells are removed from the culture flasks, centrifuged, and resuspended in fresh media. Drug treatment for experimental cells is for one hour at 37°. After the treatment period control and drug-treated cells are given a dose of 10 Gy of x-rays and incubated at 37° C. for 10 minutes to allow for repair. Samples consisting of 5×10^5 cells contained in 5 ml of ice cold PBS are deposited directly on 25 mm polycarbonate filters (2 micron pore size). The cells are washed with 5 ml of cold PBS, then lysed by the addition of 5 ml of lysis solution (0.2% SDS, 0.25M tetrasodium EDTA pH 9.7). All procedures commencing at the time of lysis are carried out in the dark. Subsequent to lysis samples are treated with 2 ml of lysis solution containing proteinase-K (0.5 mg/ml) for one hour. The filters are then eluted with tetrapropyl ammonium hydroxide/0.025M EDTA (free acid form)/0.1% SDS, pH 12.1, at a constant flow rate of 0.037 ml/min. Fractions of 2 ml are collected in scintillation vials. […] To each fraction collected and the filter solution 15 ml of modified Ready-Gel scintillation fluid containing 0.7% acetic acid is added. The frequency of single-stranded DNA breakage was calculated as described by Kohn, et al. The data is corrected for the number of single-strand breaks in the […] samples (~20%)."}, "[3]": {"biological_target": "T1, Poly(ADP-ribose) synthetase", "test": "Inhibition of Poly(ADP-ribose) synthetase", "format": "biochemical, calf", "protocol": "The enzyme assay is performed by placing the following in small glass tubes kept at 4°: 100 μl of buffer consisting of 0.5M Tris-HCl pH 8.0, 50 mM MgCl2, and 5 mM dithiothreitol; 50 μl of 1 mM [^3 H]nicotinamide adenine dinucleotide having a specific activity of 15 μCi/μmol; 100 μl of calf thymus DNA (0.3 mg/ml in water); 50 μl of calf thymus histone (Sigma, Type IIA, 0.5 mg/ml); 50 μl of inhibitor or inhibitor solvent; 150 μl of enzyme. The components are thoroughly mixed and warmed to 30° C. in a water bath. After 15 minutes the reaction is stopped by adding 2 ml of ice cold 15% trichloroacetic acid and the tubes are placed on ice for 15 minutes. The precipitate is collected on glass fiber filters and washed five times with ice cold 15% trichloroacetic acid. The filters were dried and radioactivity determined in a liquid scintillation counter."}, "KHT fibrosarcoma tumors": {"test_system": "KHT fibrosarcoma tumors", "test": "In vivo assay for radiosensitization activity", "design": "species or system hybrid mice (B6C3F1)", "procedure": "In Vivo Assay for Radiosensitization Activity\nFor this assay KHT fibrosarcoma tumors in hybrid mice (B6C3F1) weighing 20-25 g are used. The mice are randomized and implanted SC with the appropriate tumor brei on Day 0 (one implant/mouse). Samples from each donor tumor and/or from the final brei are incubated in thioglycolate media as a check for gross bacterial contamination. On Day 8 tumors are measured in two dimensions with calipers and animals with tumor masses in the range of 500 to 700 mg are selected for the assay. At this point the tumors contain approximately 20% hypoxic cells.\nThe test agents are dissolved in any of several vehicles at a fixed injection dose equal to 90-100% of the maximum tolerated dose. Additional suitable controls of test compound (no irradiation) and vehicle-injected and irradiated mice are also included. Mice are irradiated at a dose of 1700 RADs at various intervals both prior to and after intraperitoneal administration of the test agents.\nBy using these intervals, an indication of both the optimum time to irradiate and the degree of sensitization are obtained. Irradiation of the KHT tumors is by whole body irradiation of animals in movement restricting jigs at different total exposures as indicated. The x-ray source is a Phillips 320 KV instrument with a half-value thickness of 2.0 mm copper and a target to source distance of 17 inches, with a delivery rate of 2.0 Gy/minute. Animals are monitored for signs of acute toxicity after treatment.\nAfter incubation for 12-16 days at 37° and staining, the colonies are counted. The data are expressed as % control versus time."}, "tumors": {"test_system": "tumors", "settings": "cited from earlier work"}, "hypoxic tumor cells": {"test_system": "hypoxic tumor cells", "settings": "cited from earlier work"}, "[4]": {"settings": "cited from earlier work; for peripheral neuropathy and convulsions: mice"}},
  "note": "“Also recorded” adds a separate entry of the source. Where two headings read alike, the source gives them in different places.",
  "data": [
    {"molecule": "NC(=O)c1cccc(N)c1", "note": "[3-aminobenzamide]", "values": [
      {"measurement": "reduction of Dq", "setting": "V79 cells", "result": "does not reduce Dq"},
      {"measurement": "inhibition of poly(ADP-ribose)synthetase", "setting": "[1]", "result": "previously known best inhibitor of poly(ADP-ribose)synthetase"},
      {"measurement": "killing of cells by DNA-damaging agents", "setting": "[2]; certain cell lines", "result": "enhanced killing of these cells by the damaging agents"},
      {"measurement": "inhibition of postirradiation repair", "setting": "[2]", "result": "inhibit this postirradiation repair process, thereby sensitizing cells to the lethal effects of radiation; also recorded: inhibited"}
    ]},
    {"molecule": "Cc1cccc2c1CCNC2=O", "note": "[Example XII, 3,4-Dihydro-5-methyl-1(2H)-isoquinolinone]", "values": [
      {"measurement": "Frequency of Unrepaired Strand Breaks", "setting": "L1210 cells; L1210 cells, 10 Gy x-rays, class symbols", "result": "++++ (401-500)"},
      {"measurement": "Frequency of Unrepaired Strand Breaks", "setting": "L1210 cells; numeric", "result": 470, "unit": "Rad. Eq."},
      {"measurement": "Shoulder Modification (% Reduction in DQ)", "setting": "V79 cells; hypoxic V79 cells, class symbols", "result": "++ (30-44%)"},
      {"measurement": "% Reduction in Dq (37°)", "setting": "V79 cells; numeric", "result": 30, "unit": "%"},
      {"measurement": "IC50", "setting": "[3]", "result": 0.16, "unit": "µM"},
      {"measurement": "In Vivo Radiosensitizing Activity", "setting": "KHT fibrosarcoma tumors; KHT tumors in mice, relative to misonidazole", "result": "+"},
      {"measurement": "Enhancement Ratio (in vivo)", "setting": "KHT fibrosarcoma tumors; in vivo", "result": "1.4-1.5"},
      {"measurement": "Optimum time preirradiation", "setting": "KHT fibrosarcoma tumors; time of administration before irradiation", "result": "2 to 3", "unit": "h"}
    ]},
    {"molecule": "CNC=O", "note": "[N-methylformamide]", "values": [
      {"measurement": "sensitization of tumors to radiation", "setting": "tumors", "result": "sensitize tumors to the lethal effects of radiation"}
    ]},
    {"molecule": "Cc1ncc([N+](=O)[O-])n1CCO", "note": "[metronidazole, 2-methyl-5-nitro-1H-imidazole-1-ethanol]", "values": [
      {"measurement": "radiosensitizing activity", "setting": "hypoxic tumor cells", "result": "effective as radiosensitizers for hypoxic cells in vivo; also recorded: active both in vitro and in vivo as a radiosensitizer"},
      {"measurement": "peripheral neuropathy and convulsions", "setting": "[4]", "result": "peripheral neuropathy effects and convolusions in mice"},
      {"measurement": "CNS side effects", "setting": "[4]; mouse, in vivo", "result": "serious adverse CNS side effects"},
      {"measurement": "CNS toxicity, use in humans", "setting": "[4]; mouse, in vivo", "result": "limiting factor for their use in humans"}
    ]},
    {"molecule": "COCC(O)Cn1ccnc1[N+](=O)[O-]", "note": "(stereo not drawn) [misonidazole, α-(methoxymethyl)-2-nitro-1H-imidazole-1-ethanol]", "values": [
      {"measurement": "radiosensitizing activity", "setting": "hypoxic tumor cells", "result": "of value as a radio-sensitizer for hypoxic tumor cells; also recorded: effective as radiosensitizers for hypoxic cells in vivo"},
      {"measurement": "CNS side effects", "setting": "[4]; administered to mice", "result": "serious adverse CNS side effects"},
      {"measurement": "peripheral neuropathy and convulsions", "setting": "[4]", "result": "peripheral neuropathy effects and convolusions in mice"},
      {"measurement": "CNS toxicity, use in humans", "setting": "[4]; use in humans", "result": "limiting factor for their use in humans"}
    ]}
  ]
}
